Earlier results in patent US20230301919A1, “FREEZE DRIED LOW HYGROSCOPICITY ACTIVE POWDER COMPOSITIONS” (PHILIP MORRIS PRODUCTS S.A., priority 2020, published 2023).

Conditions: at 25° C.

For OC[C@H]1O[C@H](O[C@H]2O[C@H](CO)[C@@H](O)[C@H](O)[C@H]2O)[C@H](O)[C@@H](O)[C@@H]1O [trehalose], the solubility is listed as 69 g/100 ml water.
